Results published in US20160089464A1, “MALODOR REDUCTION COMPOSITIONS” (The Procter & Gamble Company, priority 2014, published 2016).

Test: Comment Code material properties: vapor pressure, ClogP, probability of ingredient color instability, odor detection threshold, melamine formaldehyde PMC headspace response ratio and leakage, liquid dish neat product liquid-air partition coefficient
Format: physicochemical
[1] = Table 1 materials, each letter of the code is one property class (vapor pressure, ClogP, color instability, odor detection threshold, PMC headspace ratio, PMC leakage, liquid dish liquid-air partition coefficient)
[2] = cell strings several class symbols together, each letter is one property class of L1

SMILES	Comment Code [1]	Comment Code [2]
C=C(C)C1CC=C(COC(C)=O)CC1 (stereo not shown) [Material 947]	DFHJK	
C=C(C)C1CC=C(CO)CC1 (stereo not shown) [Material 948]	CHIJK	
CC(C)OCCc1ccccc1 [Material 950]	ACEFHJKL	
CCCCCC=CC=CC(=O)OCC [Material 951]	BDEFHJK	
c1ccc(CCOC2CCCCC2)cc1 [Material 953]	DEFHJK	
CCC(C)C(=O)OCCc1ccccc1 (stereo not shown) [Material 954]	DEFHJK	
OCCc1ccccc1 [Material 955]	BCEFGIK	
O=COCCc1ccccc1 [Material 956]		ACEFHK
CC(C)C(=O)OCCc1ccccc1 [Material 958]		DHJK
O=C(Cc1ccccc1)OCCc1ccccc1 [Material 959]	DHJ	
C/C=C(\C)C(=O)OCCc1ccccc1 [Material 960]		DHJK
O=C(Oc1ccccc1)c1ccccc1 [Material 965]	DFHJK	
O=C(OCCc1ccccc1)c1ccccc1 [Material 967]	DHJ	
C=C(C)C(=O)OCCc1ccccc1 [Material 971]		DHJK
CC1(C)C2CC=C(CC=O)C1C2 (stereo not shown) [Material 973]	ACFHIJKL	
C=C1C(O)CC2CC1C2(C)C (stereo not shown) [Material 974]	BCEFGIJKL	
CC(=O)CCc1ccc2c(c1)OCO2 [Material 976]	CEFGJ	
CC(C)c1ccc(CC=O)cc1 [Material 977]		BDFHK

SMILES	Comment Code [1]	Comment Code [2]
CC(C)(C)C(=O)OC1CC2CC1C1CC=CC21 (stereo not shown) [Material 978]	DEFHJK	DEFHJK
CC1C[C@H]2C3CCC(C3)[C@H]2CC1=O (stereo partly shown) [Material 980]	CEFGJKL	
C=C(C)C1CCC(C)(O)C1C (stereo not shown) [Material 981]		BCEFGIJKL
CC(C)C1=CCC(C)(O)CC1 (stereo not shown) [Material 982]	BCGIJK	
COc1ccc(CC(C)=O)cc1 [Material 983]		BCEFHK
CC1=CCC(/C=C/C(C)(C)C(C)O)C1(C)C (stereo not shown) [Material 985]	DHJK	
C/C=C\C(=O)/C(C)=C(/C)C(C)C [Material 986]		ADHIJKL
CCCc1ccc(OC)cc1 [Material 987]		ADEFHKL
CC(C)=CCCC1=CCC(C)(C=O)CC1 (stereo not shown) [Material 988]	DFHJK	
CC(O)CO (stereo not shown) [Material 993]	ACEFGIKL	
CC(C)(C)c1ccc(CC=O)cc1 [Material 994]		BDHJK
CCC(C)(C)C1CCC(O)CC1 (stereo not shown) [Material 995]		BDEFHIJK
Cc1ccc(OC(=O)Cc2ccccc2)cc1 [Material 998]	DFHJ	
CCC=CCC=CC=CC(=O)OCC [Material 1000]	BDEFHJK	
CC1=CCC2CC1C2(C)C (stereo not shown) [Material 1001]		ADEFGIJKL
CC(=O)CCc1ccc(O)cc1 [Material 1002]		CEFGIK
CC1CC(C)(C)OC(Cc2ccccc2)O1 (stereo not shown) [Material 1003]	DEFHJK	
C=CCc1ccc2c(c1)OCO2 [Material 1021]	BCEFHK	

Further lines, results first:

Comment Code [1]	Comment Code [2]	SMILES
	BCHIJKL	C=C(C)CCC[C@H](C)CCO [Material 1004]
	BDEFHJKL	CCOC(=O)OC1C(C)CCC(C)C1C (stereo not shown) [Material 1005]
BDEFHJK		CC1CC(C)(c2ccccc2)CO1 (stereo not shown) [Material 1006]
DEFHJK	DEFHJK	CC1=CC[C@@H]2C3CC([C@@H]2C1)[C@@]1(C3)OC1C (stereo partly shown) [Material 1007]
BCEFHJKL		C/C=C1/CC2CC1C1CCCOC21 (stereo not shown) [Material 1008]
DFHJ		CCC(=O)OCC(=O)OC(C)C1CCCC(C)(C)C1 (stereo not shown) [Material 1009]
ADHIJKL		C=C1CCCC(C)(C)C1C(=O)OC (stereo not shown) [Material 1010]
	ADHIJKL	CC(=O)OC(C)C1CCCC(C)(C)C1 (stereo not shown) [Material 1011]
DEFHJK		CC(CO)CCCc1ccccc1 (stereo not shown) [Material 1012]
BCEFGJK		CC1=CCOC(c2ccccc2)C1 (stereo not shown) [Material 1016]
	BCEFGIJK	C=C[C@@](C)(O)CCC=C(C)C [Material 1017]
	ADEFGIJKL	C=C1CCC2(C(C)C)CC12 (stereo not shown) [Material 1018]
	ADEFGIJKL	CC(C)C12CCC(C)(O)C1C2 (stereo not shown) [Material 1019]
BCEFHIJKL		C=C1C(O)CC2(C(C)C)CC12 (stereo not shown) [Material 1020]
DHIJK	DHIJK	CC1=CC(C)C2(CCCC(C)(C)C2=O)CC1 (stereo not shown) [Material 1022]
DEFHJK		CC1=CCC(CCC(C)C(C)O)C1(C)C (stereo not shown) [Material 1023]
DEFHJK	DEFHJK	CC/C(=C/CC1CC=C(C)C1(C)C)CO (stereo not shown) [Material 1024]
CHJK		CC(=CCC1CC=C(C)C1(C)C)CO (stereo not shown) [Material 1025]
CHJK		COC1CC2CC1C1CC(C=O)CC21 (stereo not shown) [Material 1026]
	CHJK	COC1CC2CC1C1CC(C=O)CC21 (stereo not shown) [Material 1027]
DEFHJ	DEFHJ	C=C[C@](C)(O)CC[C@@H]1[C@@]2(C)CCCC(C)(C)[C@@H]2CC[C@@]1(C)O [Material 1028]

Comment Code [1]	Comment Code [2]	SMILES
DEFHJK	DEFHJK	CC1=CC[C@@H]2[C@@]3(C)CCCC(C)(C)[C@@H]3CC[C@@]2(C)O1 [Material 1029]
	BDEFHJK	CCCOC(=O)[C@H](C)OC(C)(C)CC [Material 1030]
DEFHJKL		CC1=CCCC2(C)CCC(=C(C)C)CC12 (stereo not shown) [Material 1031]
DEFHJ		CC(OC(C)(C)COC(=O)C1CC1)C1CCCC(C)(C)C1 (stereo not shown) [Material 1032]
DHJK		CC(C)Cc1ccc(CC(C)C=O)cc1 (stereo not shown) [Material 1033]
DEFHJK	DEFHJK	C=C1CC[C@@H]2[C@H]([C@H]3[C@H]1CC[C@]3(C)O)C2(C)C [Material 1035]
BCEFHJK		CC1CCC2C(C2(C)C)C12COC(C)(C)OC2 (stereo not shown) [Material 1036]
DGJK	DGJK	C=CCCC(=O)C1=CCCC2(CCCC2)C1 [Material 1038]
	BCGIKL	O=C1CCC2(CCCCC2)O1 [Material 1039]
	BCEFGIJKL	CC/C(CC(C)CC)=N/O (stereo not shown) [Material 1040]
	ACEFHIK	CC(=O)OC(C)c1ccccc1 (stereo not shown) [Material 1041]
CGIKL		Cc1ncsc1CCO [Material 1042]
ACEFHIJKL		CCCCC(CC)C1OCCO1 (stereo not shown) [Material 1043]
BDFHJK		CCCCCCC/C=C\CCC=O [Material 1045]
DEFHJK		CC1=CC2C(C(C)C)CCC(C)(O)C2CC1 (stereo not shown) [Material 1046]
DEFHJK		CC1=CC2C(C(C)C)CCC(C)(O)C2CC1 (stereo not shown) [Material 1047]
	ADGIJKL	CC(C)CCCC(C)CC=O (stereo not shown) [Material 1051]
	BDEFHIJK	CC(O)CCC1C(C)CCCC1(C)C (stereo not shown) [Material 1052]
BDFHIJKL		CCCCCC1C(=O)CCC1C (stereo not shown) [Material 1053]
	BDEFGIJKL	CCC(C)(O)CCCC(C)C (stereo not shown) [Material 1054]
